In patent US20250206724A1, “SUBSTITUTED 3-AMINO INDAZOLE DERIVATIVES AS KINASE INHIBITORS” (NERVIANO MEDICAL SCIENCES S.R.L., priority 2022, published 2025):
Counter-ions that a name gives are not always drawn. Like-named read-outs stand apart in the source and are kept apart here.

Experiments:
[1] = tested on: EoL-1-cell; assay: Cytotoxicity assay (CellTiterGlo, 72 hours treatment), EoL-1; type: cell-based, Human; conditions: EoL-1 acute myeloid leukemia cells, ATP determination, read-out: Cell line IC50 EoL-1-cell
Description: (§1) Cell Lines and Cell Cultures
(§2) All cell lines were seeded at a density ranging from 2,400 to 8,000 cells/well in 384-well cell culture microplates and incubated at […] in a humidified 5% […] atmosphere 24 hours before treatment. Compound solutions were directly administered to the cells using the D300e digital dispenser (Tecan) to obtain scalar final concentrations ranging from 5 nM to 10 μM (duplicate wells for each point), with 80 uL final volume per well. The final DMSO concentration in test wells was adjusted to 0.1% (v/v); control wells were mock-treated and contained the same final concentration of DMSO.
(§3) Cell viability was determined after 72 hours treatment by ATP determination in each test well with a luciferase-based detection system (CellTiterGlo, Promega, Madison, WI, USA), following manufacturer's instructions. The intensity of emitted light was measured using an EnVision reader (PerkinElmer, Waltham, MA USA) and expressed as RLU. One to three independent experiments were performed for each cell line, as indicated.
(§4) Analysis of Antiproliferative Data
(§5) Cell growth inhibitory activity was evaluated comparing treated versus control data using the Assay Explorer software suite (Symix Technologies Inc.). IC50s values were calculated by sigmoidal fitting interpolation using the following quadriparametric Hill equation: […]
(§6) The Top, Bottom and Hill slope parameters were left free to assume any value, but only curves whose Hill slope had values between 0.5 and 4 were arbitrarily considered acceptable and used to calculate the average IC50s. Curves too steep (HillSlope≥4) or too slight (HillSlope≤0.5) were not included (Table C).

[2] = tested on: NB-4; assay: Cytotoxicity assay (CellTiterGlo, 72 hours treatment), NB-4; type: cell-based, Human; conditions: NB-4 acute myeloid leukemia cells, ATP determination, read-out: Cell line IC50 NB-4
Description: as §1, §2, §3, §4, §5, §6

[3] = tested on: MOLM-13; assay: Cytotoxicity assay (CellTiterGlo, 72 hours treatment), MOLM-13; type: cell-based, Human; conditions: MOLM-13 acute myeloid leukemia cells, ATP determination, read-out: Cell line IC50 MOLM-13
Description: as §1, §2, §3, §4, §5, §6

[4] = biological target: T1, CDK11A (Homo sapiens, UniProt Q9UQ88); conditions: displacement of SNS-032-Atto590 probe (0.002 μM) from CDK11A-p58 (0.032 uM), fluorescence polarization;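 also: compound preincubated 30 min with CDK11A-p58, then probe added and polarization (mP) read 15 min later, 0% displacement is probe plus enzyme, 100% is probe alone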
T1 sequence (Q9UQ88 346-783): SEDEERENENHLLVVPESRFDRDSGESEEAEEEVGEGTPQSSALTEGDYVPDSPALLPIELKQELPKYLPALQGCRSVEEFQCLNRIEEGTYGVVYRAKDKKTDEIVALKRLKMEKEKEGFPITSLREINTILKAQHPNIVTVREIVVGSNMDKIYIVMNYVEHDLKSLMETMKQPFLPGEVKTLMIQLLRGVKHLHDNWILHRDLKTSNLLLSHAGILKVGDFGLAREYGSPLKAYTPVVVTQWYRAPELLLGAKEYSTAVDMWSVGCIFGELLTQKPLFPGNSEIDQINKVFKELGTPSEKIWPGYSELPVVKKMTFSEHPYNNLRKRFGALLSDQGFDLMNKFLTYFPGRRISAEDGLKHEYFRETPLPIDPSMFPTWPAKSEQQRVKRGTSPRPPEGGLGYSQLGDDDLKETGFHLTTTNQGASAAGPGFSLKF

Row | DC50 [4] [nM] | Compound | IC50 ([1]; Homo sapiens, EOL1, 72 h) [nM] | IC50 ([2]; Homo sapiens, NB-4, 72 h) [nM] | IC50 ([3]; Homo sapiens, MOLM-13, 72 h) [nM] | IC50 [1] [nM] | IC50 [2] [nM] | IC50 [3] [nM]
1 | 23 | N#Cc1ccc(Cl)c(-c2ccc3[nH]nc(NC(=O)[C@@H]4CCCNC4)c3c2)c1 [compound 174, (3R)-N-[5-(2-Chloro-5-cyanophenyl)-1H-indazol-3-yl]piperidine-3-carboxamide hydrochloride] | 165 | 171 | 190 | – | – | –
2 | 21 | C[C@@H]1CC[C@@H](C(=O)Nc2n[nH]c3ccc(-c4cc(C#N)ccc4Cl)cc23)CN1 [compound 179, (3R,6R)-N-[5-(2-Chloro-5-cyanophenyl)-1H-indazol-3-yl]-6-methylpiperidine-3-carboxamide trifluoroacetate] | 259 | 335 | 414 | – | – | –
3 | 181 | CC1(C)CCC(C(=O)Nc2n[nH]c3ccc(-c4cc(C#N)ccc4Cl)cc23)CN1 (single isomer, unassigned; (-)) [compound 203, (−)-N-[5-(2-Chloro-5-cyanophenyl)-1H-indazol-3-yl]-6,6-dimethylpiperidine-3-carboxamide] | – | – | – | 1250 | 1320 | 1380

The next lines start with the compound.

Row | Compound | DC50 [4] [nM] | IC50 ([1]; Homo sapiens, EOL1, 72 h) [nM] | IC50 ([2]; Homo sapiens, NB-4, 72 h) [nM] | IC50 ([3]; Homo sapiens, MOLM-13, 72 h) [nM] | IC50 [1] [nM] | IC50 [2] [nM] | IC50 [3] [nM]
4 | Cc1ccc(C#N)cc1-c1ccc2[nH]nc(NC(=O)[C@@H]3CCCNC3)c2c1 [cpd 24, (3R)-N-[5-(5-Cyano-2-methylphenyl)-1H-indazol-3-yl]piperidine-3-carboxamide hydrochloride] | 43 | 423 | 595 | 563 | – | – | –
5 | O=C(Nc1n[nH]c2ccc(-c3c(Cl)cccc3Cl)cc12)[C@@H]1CCNC1 [compound 167, (3R)-N-[5-(2,6-Dichlorophenyl)-1H-indazol-3-yl]pyrrolidine-3-carboxamide hydrochloride] | 27 | 651 | 525 | 610 | – | – | –
6 | CNC1CC(C(=O)Nc2n[nH]c3ccc(-c4c(Cl)cccc4Cl)cc23)C1 (stereo not drawn) [compound 145, N-[5-(2,6-Dichlorophenyl)-1H-indazol-3-yl]-3-(methylamino)cyclobutanecarboxamide hydrochloride] | 44 | 663 | 520 | 483 | – | – | –
7 | N#Cc1ccc(Cl)c(-c2ccc3[nH]nc(NC(=O)C4CCC5(CCCCC5)NC4)c3c2)c1 (stereo not drawn) [compound 186, N-[5-(2-Chloro-5-cyanophenyl)-1H-indazol-3-yl]-1-azaspiro[5.5]undecane-3-carboxamide hydrochloride] | 65 | 315 | 365 | 303 | – | – | –
8 | N#Cc1ccc(F)c(-c2ccc3[nH]nc(NC(=O)[C@@H]4CCCNC4)c3c2)c1 [cpd 25, (3R)-N-[5-(5-Cyano-2-fluorophenyl)-1H-indazol-3-yl]piperidine-3-carboxamide hydrochloride] | 31 | 1720 | 1660 | 2860 | – | – | –
9 | O=C(Nc1n[nH]c2ccc(-c3c(F)cccc3Cl)cc12)C1CCCNC1 (stereo not drawn) [compound 165, N-[5-(2-Chloro-6-fluorophenyl)-1H-indazol-3-yl]piperidine-3-carboxamide hydrochloride] | 36 | 484 | 629 | 463 | – | – | –
